{"source": "patent US20110312945A1", "about": "“CRTH2 MODULATORS” (priority 2008, published 2011)"}
{"molecular_target": "T1, CRTH2 (Homo sapiens, UniProt Q9Y5Y4)", "T1 construct": "polymorphonuclear cells (0.5 ml; 10^6/ml cells) in PBS containing 0.9 mM CaCl2 and 0.5 mM MgCl2; endogenous in cells; host or cells: polymorphonuclear cells (eosinophils gated by flow cytometry)", "T1 sequence (Q9Y5Y4 1-395)": "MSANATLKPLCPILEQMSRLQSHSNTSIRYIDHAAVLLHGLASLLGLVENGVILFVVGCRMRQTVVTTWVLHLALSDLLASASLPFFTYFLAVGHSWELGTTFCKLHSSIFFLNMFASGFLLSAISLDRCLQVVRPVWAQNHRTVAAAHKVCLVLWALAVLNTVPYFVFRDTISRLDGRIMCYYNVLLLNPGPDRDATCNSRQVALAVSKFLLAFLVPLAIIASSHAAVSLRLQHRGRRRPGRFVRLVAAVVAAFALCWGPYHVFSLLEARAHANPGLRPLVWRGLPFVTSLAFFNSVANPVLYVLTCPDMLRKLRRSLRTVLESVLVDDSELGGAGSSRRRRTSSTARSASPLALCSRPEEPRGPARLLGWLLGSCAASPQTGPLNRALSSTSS", "assay": "DPBS CD11b Antagonist Assay", "assay_type": "cell-based", "details": "polymorphonuclear cells in PBS, eosinophil CD11b expression, challenge with 15R-Methyl-PGD2 (10 nM)", "method": "DPBS CD11b Antagonist Assay. The potential CRTH2 antagonist activity of certain compounds was tested using a CD11b expression assay using essentially the method described by Monneret et al. (J Pharmacol Exp Ther 304:349-55, 2003). Briefly, polymorphonuclear cells (0.5 ml; 10^6/ml cells) in PBS containing 0.9 mM CaCl2 and 0.5 mM MgCl2) were preincubated with various concentrations of test compounds at room temperature for 10 minutes before they were challenged with the agonist 15R-Methyl-PGD2 (10 nM). The incubations were terminated by the addition of ice-cold FACSFlow (BD Biosciences; Cat# 342003) and centrifugation (400 g for 5 minutes at 4° C.). The cells were then incubated for 30 minutes at 4° C. with a mixture of PE-labeled mouse anti-human VLA-4 (5 μl; BD Biosciences) and FITC-labeled mouse anti-human CD11b (10 μl; Beckman Coulter). The cells were then incubated with Optilyse C (0.25 ml; Beckman Coulter) for 15 minutes, centrifuged, and then fixed in PBS (0.4 ml; calcium and magnesium free) containing 1% formaldehyde. The distribution of fluorescence intensities among 60,000 cells was measured by flow cytometry. Eosinophils were gated out on the basis of their granularity (high side scatter) and labeling with VLA-4 (PE fluorescence). CD11b was then measured in the eosinophil region on the basis of fluorescence due to FITC. All data were corrected for the value obtained for the corresponding isotope control antibody.", "units": {"IC50": "µM"}}
{"compound": "Cc1c(Cc2ccc(S(=O)(=O)NC3CC3)cc2)c2c(n1CC(=O)O)CCC(C)(C)C2", "note": "[Example I-15, 2-(3-(4-(N-Cyclopropylsulfamoyl)benzyl)-2,5,5-trimethyl-4,5,6,7-tetrahydro-1H-indol-1-yl)acetic acid]", "IC50": "< 0.005"}
{"compound": "Cc1c(Cc2ccc(S(=O)(=O)N3CCCCCC3)cc2)c2c(n1CC(=O)O)CCC(C)(C)C2", "note": "[Example I-16, 2-(3-(4-(Azepan-1-ylsulfonyl)benzyl)-2,5,5-trimethyl-4,5,6,7-tetrahydro-1H-indol-1-yl)acetic acid]", "IC50": "0.005 to 0.1"}
{"compound": "Cc1c(Cc2ccc(S(=O)(=O)N(C)C)cc2)c2c(n1CC(=O)O)CCC(C)(C)C2", "note": "[Example I-18, 2-(3-(4-(N,N-Dimethylsulfamoyl)benzyl)-2,5,5-trimethyl-4,5,6,7-tetrahydro-1H-indol-1-yl)acetic acid]", "IC50": "< 0.005"}
{"compound": "CCOC(=O)Cn1c(C)c(Cc2ccccc2S(=O)(=O)N2CCOCC2)c2c1CCC(C)(C)C2", "note": "[Example I-25, Ethyl 2-(2,5,5-trimethyl-3-(2-(morpholinosulfonyl)benzyl)-4,5,6,7-tetrahydro-1H-indol-1-yl)acetate]", "IC50": "0.1 to 0.5"}
{"compound": "Cc1c(Cc2ccccc2S(=O)(=O)N2CCOCC2)c2c(n1CC(=O)O)CC(C)(C)CC2", "note": "[Example I-26, 2-(2,6,6-trimethyl-3-(2-(morpholinosulfonyl)benzyl)-4,5,6,7-tetrahydro-1H-indol-1-yl)acetic acid]", "IC50": "< 0.005"}
{"compound": "Cc1c(Cc2cccc(S(=O)(=O)N3CCOCC3)c2)c2c(n1CC(=O)O)CCC(C)(C)C2", "note": "[Example I-27, 2-(2,5,5-trimethyl-3-(3-(morpholinosulfonyl)benzyl)-4,5,6,7-tetrahydro-1H-indol-1-yl)acetic acid]", "IC50": "0.005 to 0.1"}
{"compound": "Cc1c(Cc2ccccc2S(=O)(=O)N2CCOCC2)c2c(n1[C@H](C)C(=O)O)CCC(C)(C)C2", "note": "[Example I-35, (R)-2-(2,5,5-trimethyl-3-(2-(morpholinosulfonyl)benzyl)-4,5,6,7-tetrahydro-1H-indol-1-yl)propanoic acid]", "IC50": "< 0.005"}
{"compound": "Cc1c(Sc2ccc(S(=O)(=O)N3CCOCC3)cc2)c2c(n1CC(=O)O)CCC(C)(C)C2", "note": "[Example I-37, 2-(2,5,5-trimethyl-3-(4-(morpholinosulfonyl)phenylthio)-4,5,6,7-tetrahydro-1H-indol-1-yl)acetic acid]", "IC50": "< 0.005"}
{"compound": "Cc1c(C(O)c2ccccc2S(=O)(=O)N2CCCC2)c2c(n1CC(=O)O)CC(C)(C)CC2=O", "note": "(stereo not drawn) [Example I-50, 2-(3-(hydroxy(2-(pyrrolidin-1-ylsulfonyl)phenyl)methyl)-2,6,6-trimethyl-4-oxo-4,5,6,7-tetrahydro-1H-indol-1-yl)acetic acid]", "IC50": "> 0.5"}
{"compound": "Cc1c(Cc2ccccc2S(=O)(=O)N(C)C)c2c(n1CC(=O)O)CC(C)(C)CC2=O", "note": "[Example I-52, 2-(3-(2-(N,N-dimethylsulfamoyl)benzyl)-2,6,6-trimethyl-4-oxo-4,5,6,7-tetrahydro-1H-indol-1-yl)acetic acid]", "IC50": "< 0.005"}
{"compound": "CCOC(=O)Cn1c(C)c(Sc2ccc(Br)cc2S(=O)(=O)N2CCCC2)c2c1CC(C)(C)CC2=O", "note": "[Example I-53, ethyl 2-(3-(4-bromo-2-(pyrrolidin-1-ylsulfonyl)phenylthio)-2,6,6-trimethyl-4-oxo-4,5,6,7-tetrahydro-1H-indol-1-yl)acetate]", "IC50": "> 0.5"}
{"compound": "CCOC(=O)Cn1c(C)c(Sc2ccc(C)cc2S(=O)(=O)N2CCCC2)c2c1CC(C)(C)CC2=O", "note": "[Example I-54, ethyl 2-(2,6,6-trimethyl-3-(4-methyl-2-(pyrrolidin-1-ylsulfonyl)phenylthio)-4-oxo-4,5,6,7-tetrahydro-1H-indol-1-yl)acetate]", "IC50": "0.1 to 0.5"}
{"compound": "CCOC(=O)Cn1c(C)c(Cc2ccccc2S(=O)(=O)N2CCOCC2)c2c1CC(C)(C)CC2=O", "note": "[Example I-56, ethyl 2-(2,6,6-trimethyl-3-(2-(morpholinosulfonyl)benzyl)-4-oxo-4,5,6,7-tetrahydro-1H-indol-1-yl)acetate]", "IC50": "0.1 to 0.5"}
{"compound": "CCOC(=O)Cn1c(C)c(Sc2ccc(F)cc2S(=O)(=O)N2CCCC2)c2c1CC(C)(C)CC2=O", "note": "[Example I-57, Ethyl 2-(3-(4-fluoro-2-(pyrrolidin-1-ylsulfonyl)phenylthio)-2,6,6-trimethyl-4-oxo-4,5,6,7-tetrahydro-1H-indol-1-yl)acetate]", "IC50": "0.005 to 0.1"}
{"compound": "COC(=O)Cn1c(C)c(Cc2ccccc2S(=O)(=O)N2CCCC2)c2c1CC(C)(C)CC2=O", "note": "[Example I-58, Methyl 2-(2,6,6-trimethyl-4-oxo-3-(2-(pyrrolidin-1-ylsulfonyl)benzyl)-4,5,6,7-tetrahydro-1H-indol-1-yl)acetate]", "IC50": "0.005 to 0.1"}
{"compound": "COC(=O)Cn1c(C)c(Cc2ccccc2S(=O)(=O)N2CCOCC2)c2c1CC(C)(C)CC2=O", "note": "[Example I-59, methyl 2-(2,6,6-trimethyl-3-(2-(morpholinosulfonyl)benzyl)-4-oxo-4,5,6,7-tetrahydro-1H-indol-1-yl)acetate]", "IC50": "0.005 to 0.1"}
{"compound": "Cc1c(Cc2ccccc2S(=O)(=O)N2CCOCC2)c2c(n1CC(=O)OC(C)C)CC(C)(C)CC2=O", "note": "[Example I-60, isopropyl 2-(2,6,6-trimethyl-3-(2-(morpholinosulfonyl)benzyl)-4-oxo-4,5,6,7-tetrahydro-1H-indol-1-yl)acetate]", "IC50": "> 0.5"}
{"compound": "Cc1c(Cc2ccccc2S(=O)(=O)N2CCCC2)c2c(n1CC(=O)OCCN1CCOCC1)CC(C)(C)CC2=O", "note": "[Example I-62, 2-morpholinoethyl 2-(2,6,6-trimethyl-4-oxo-3-(2-(pyrrolidin-1-ylsulfonyl)benzyl)-4,5,6,7-tetrahydro-1H-indol-1-yl)acetate]", "IC50": "< 0.005"}
{"compound": "CCOC(=O)Cn1c(C)c(Cc2ccccc2S(=O)(=O)N(C)c2ccccc2)c2c1CC(C)(C)CC2=O", "note": "[Example I-66, ethyl 2-(2,6,6-trimethyl-3-(2-(N-methyl-N-phenylsulfamoyl)benzyl)-4-oxo-4,5,6,7-tetrahydro-1H-indol-1-yl)acetate]", "IC50": "0.005 to 0.1"}
{"compound": "Cc1c(S(=O)(=O)N(C)c2ccccc2)c2c(n1CC(=O)O)CC(C)(C)CC2=O", "note": "[Example I-75, 2-(2,6,6-trimethyl-3-(N-methyl-N-phenylsulfamoyl)-4-oxo-4,5,6,7-tetrahydro-1H-indol-1-yl)acetic acid]", "IC50": "> 0.5"}
{"compound": "Cc1c(Cc2ccccc2S(=O)(=O)N2CCCC2)c2c(n1CC(=O)O)CCCC2=O", "note": "[Example I-77, 2-(2-methyl-4-oxo-3-(2-(pyrrolidin-1-ylsulfonyl)benzyl)-4,5,6,7-tetrahydro-1H-indol-1-yl)acetic acid]", "IC50": "< 0.005"}
{"compound": "Cc1c(Cc2ccccc2S(=O)(=O)c2cccs2)c2c(n1CC(=O)O)CC(C)(C)CC2=O", "note": "[Example I-81, 2-(2,6,6-trimethyl-4-oxo-3-(2-(thiophen-2-ylsulfonyl)benzyl)-4,5,6,7-tetrahydro-1H-indol-1-yl)acetic acid]", "IC50": "< 0.005"}
{"compound": "Cc1c(Cc2ccccc2S(=O)(=O)C2CCCCC2)c2c(n1CC(=O)O)CC(C)(C)CC2=O", "note": "[Example I-82, 2-(3-(2-(cyclohexylsulfonyl)benzyl)-2,6,6-trimethyl-4-oxo-4,5,6,7-tetrahydro-1H-indol-1-yl)acetic acid]", "IC50": "< 0.005"}
{"compound": "Cc1c(Cc2ccccc2S(=O)(=O)N2CCCC2)c2c(n1CC(N)=O)CC(C)(C)CC2=O", "note": "[Example I-84, 2-(2,6,6-trimethyl-4-oxo-3-(2-(pyrrolidin-1-ylsulfonyl)benzyl)-4,5,6,7-tetrahydro-1H-indol-1-yl)acetamide]", "IC50": "> 0.5"}
